For experiment [1], the target named is T1, MAGL (Mus musculus, UniProt O35678).
T1 construct: Proteomes (mouse brain membrane fraction or cell lysates); from tissue; host or cells: mouse brain membrane fraction or cell lysates
T1 sequence (O35678 1-303): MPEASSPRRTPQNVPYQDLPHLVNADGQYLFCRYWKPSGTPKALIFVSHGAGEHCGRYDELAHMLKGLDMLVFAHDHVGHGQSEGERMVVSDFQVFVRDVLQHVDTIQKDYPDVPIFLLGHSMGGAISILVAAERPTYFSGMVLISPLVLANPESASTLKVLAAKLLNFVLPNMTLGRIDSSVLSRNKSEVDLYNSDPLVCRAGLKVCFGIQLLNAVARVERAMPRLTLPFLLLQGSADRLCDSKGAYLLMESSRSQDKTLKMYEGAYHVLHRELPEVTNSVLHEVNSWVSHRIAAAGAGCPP
Kind of experiment: In vitro competitive activity-based protein profiling (mouse), MAGL. The class given is biochemical. Conditions: for inhibition at 1 µM: 1 μM inhibitor, mouse brain membrane fraction or cell lysates, read-out: MAGL % inh. 1 μM (mouse); for IC50: mouse proteome. An outline of the steps: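 Mouse brain membrane fraction or cell lysate proteomes (50 μL, 1.0 mg/mL total protein) were preincubated with inhibitors at varying concentrations for 30 min at 37° C. FP-Rh (1.0 μL, 50 μM in DMSO) was then added for a further 30 min at 37° C. Samples were quenched with 4× SDS loading buffer and resolved by SDS-PAGE. MAGL activity was quantified from fluorescent gel band intensity using ImageJ 1.49 k.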

In experiment [2] the target is T1, MAGL. Kind of experiment: Mouse brain proteomes from inhibitor treated mice, MAGL inhibition. The experiment is classed as in vivo. Conditions: 5 mg/kg oral gavage, C57Bl/6J mouse brain, 4 h following administration; read-out: MAGL % inh. 5 mg/kg (mouse). The method, then:
Preparation of Mouse Brain Proteomes from Inhibitor Treated Mice.
Inhibitors were administered to wild-type C57Bl/6J by oral gavage in a vehicle of polyethylene glycol. Each animal was sacrificed 4 h following administration and brain proteomes were prepared and analyzed according to previously established methods (See Niphakis, M. J., et al. (2011) ACS Chem. Neurosci. and Long, J. Z., et al. Nat. Chem. Biol. 5:37-44).

The target of experiment [3] is T2, ABHD6 (Homo sapiens, UniProt Q9BV23).
T2 construct: Proteomes (human prefrontal cortex or cell membrane fractions); endogenous in cells; human prefrontal cortex
T2 sequence (Q9BV23 1-337): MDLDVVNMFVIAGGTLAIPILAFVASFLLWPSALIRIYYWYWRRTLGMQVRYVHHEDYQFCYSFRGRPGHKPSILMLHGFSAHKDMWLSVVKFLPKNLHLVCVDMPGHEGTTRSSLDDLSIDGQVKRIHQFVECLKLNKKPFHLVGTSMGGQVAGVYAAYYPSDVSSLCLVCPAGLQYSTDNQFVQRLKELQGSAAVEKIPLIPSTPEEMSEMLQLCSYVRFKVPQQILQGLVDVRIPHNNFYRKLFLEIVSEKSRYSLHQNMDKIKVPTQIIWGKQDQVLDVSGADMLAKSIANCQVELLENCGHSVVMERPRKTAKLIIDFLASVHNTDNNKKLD
Nature of the experiment: In vitro competitive activity-based protein profiling (human), ABHD6. Conditions: human PC3. The experiment is classed as biochemical. An outline of the steps: (§1)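 Human prefrontal cortex or cell membrane proteomes (1.0-2.0 mg/mL protein) preincubated 30 min at 37° C with inhibitor, then labeled 30 min RT with FP-Rh or JW912 probe. After SDS-PAGE, activity taken from fluorescent band intensity for each enzyme.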

In experiment [4] the target is T3, MAGL (Homo sapiens, UniProt Q99685).
T3 construct: Proteomes (human prefrontal cortex or cell membrane fractions); from tissue
T3 sequence (Q99685 1-303): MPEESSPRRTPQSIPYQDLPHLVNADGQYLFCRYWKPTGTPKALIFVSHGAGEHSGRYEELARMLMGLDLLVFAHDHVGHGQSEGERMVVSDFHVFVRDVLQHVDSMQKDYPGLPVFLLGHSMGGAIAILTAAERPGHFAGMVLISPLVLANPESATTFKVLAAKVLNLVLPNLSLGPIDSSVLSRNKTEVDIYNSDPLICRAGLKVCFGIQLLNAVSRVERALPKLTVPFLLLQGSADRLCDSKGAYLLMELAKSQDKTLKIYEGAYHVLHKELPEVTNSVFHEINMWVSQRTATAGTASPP
Kind of experiment: In vitro competitive activity-based protein profiling (human), MAGL. The class given is biochemical. To be noted: for inhibition at 1 µM: 1 μM inhibitor, human proteome, 30 min preincubation at 37° C, read-out: MAGL % inh. 1 μM (human); for IC50: human PC3. An outline of the steps:
as §1

For experiment [5], the target named is T4, ABHD6 (Mus musculus, UniProt Q8R2Y0).
T4 construct: Proteomes (mouse brain membrane fraction or cell lysates); from tissue; host or cells: mouse brain membrane fraction or cell lysates
T4 sequence (Q8R2Y0 1-336): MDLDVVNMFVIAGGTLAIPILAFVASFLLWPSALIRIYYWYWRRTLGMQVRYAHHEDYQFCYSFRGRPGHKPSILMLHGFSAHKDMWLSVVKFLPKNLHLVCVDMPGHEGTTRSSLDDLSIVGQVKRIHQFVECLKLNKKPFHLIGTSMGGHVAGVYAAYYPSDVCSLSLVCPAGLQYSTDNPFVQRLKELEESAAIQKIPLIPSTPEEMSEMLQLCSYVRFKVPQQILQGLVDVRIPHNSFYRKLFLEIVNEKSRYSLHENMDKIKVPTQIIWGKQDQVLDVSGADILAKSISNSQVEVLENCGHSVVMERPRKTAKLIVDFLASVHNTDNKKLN
Kind of experiment: In vitro competitive activity-based protein profiling (mouse), ABHD6. The class given is biochemical. To be noted: 1 μM inhibitor, mouse brain membrane fraction or cell lysates; read-out: ABHD6 % inh. 1 μM (mouse). An outline of the steps:
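Mouse brain membrane proteome or cell lysate (1.0 mg/mL protein) preincubated 30 min at 37 °C with inhibitor, then labelled 30 min at 37 °C with FP-rhodamine probe. Remaining MAGL and ABHD6 activity quantified by in-gel fluorescence band intensity after SDS-PAGE; values are % inhibition at 1 μM.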

The record followed here is patent US10899737B2, “Piperazine carbamates and methods of making and using same” (Lundbeck La Jolla Research Center, Inc., priority 2016, dated 2021).

The term IC50 denotes the point on the concentration scale where inhibition reaches its midpoint. Low values mean greater potency in that assay, high ones weaker potency in that assay.

On to `CC1(C(=O)O)CCCN(c2cc(C(F)(F)F)ccc2CN2CCN(C(=O)OC(C(F)(F)F)C(F)(F)F)CC2)C1` (stereo not shown) [Example 54, 1-(2-((4-(((1,1,1,3,3,3-hexafluoropropan-2-yl)oxy)carbonyl)piperazin-1-yl)methyl)-5-(trifluoromethyl)phenyl)-3-methylpiperidine-3-carboxylic acid], for which the figures for the inhibition at 1 µM on MAGL [1], at MAGL [4] and on ABHD6 [5] were at least 75%, at least 75% and 50 to 75%, respectively. The inhibition at 5 mg/kg on MAGL [2] is at least 75%. In addition, the concentration for half-maximal inhibition (IC50) on ABHD6 [3] is 1 to 10 µM; at MAGL [4] it was at most 0.1 µM.
Consider `O=C(O)Cn1ccc(-c2cc(F)ccc2CN2CCN(C(=O)OC(C(F)(F)F)C(F)(F)F)CC2)n1` [Example 13, 2-(3-(5-Fluoro-2-((4-(((1,1,1,3,3,3-hexafluoropropan-2-yl)oxy)carbonyl)piperazin-1-yl)methyl)phenyl)-1H-pyrazol-1-yl)acetic Acid], for which the inhibition at 1 µM on MAGL [1] was at least 75%; at MAGL [4] it was at least 75%; on ABHD6 [5] it was 0 to 25%. The inhibition at 5 mg/kg at MAGL [2] was in the range of 0 to 25%. Besides, the half-maximal inhibitory concentration (IC50) was 1 to 10 µM on ABHD6 [3] and at most 0.1 µM on MAGL [4].
Turning to `CC1(C(=O)O)CCN(c2cc(C(F)(F)F)ccc2CN2CCN(C(=O)OC(C(F)(F)F)C(F)(F)F)CC2)C1` (stereo not shown) [Example 55, 1-{2-[(4-{[(1,1,1,3,3,3-hexafluoropropan-2-yl)oxy]carbonyl}piperazin-1-yl)methyl]-5-(trifluoromethyl)phenyl}-3-methylpyrrolidin-3-carboxylic acid], the inhibition at 1 µM on MAGL [1], on MAGL [4] and at ABHD6 [5] was at least 75% each time. For the same compound, on MAGL [2], the inhibition at 5 mg/kg lay in the range of 25 to 50%. Besides, the results for the IC50 at ABHD6 [3] and on MAGL [4] were 0.1 to 1 µM and at most 0.1 µM, respectively.
As for `O=C(O)C1CCN(C(=O)c2cc(CN3CCN(C(=O)OC(C(F)(F)F)C(F)(F)F)CC3)ccc2C(F)(F)F)CC1` [Example 46, 1-(5-((4-(((1,1,1,3,3,3-hexafluoropropan-2-yl)oxy)carbonyl)piperazin-1-yl)methyl)-2-(trifluoromethyl)benzoyl)piperidine-4-carboxylic acid], the inhibition at 1 µM at MAGL [1] is at least 75%; on MAGL [4] it was at least 75%; at ABHD6 [5] it was 0 to 25%. Also, the inhibition at 5 mg/kg at MAGL [2] was 0 to 25%. Moreover, the IC50 at ABHD6 [3] is 1 to 10 µM; on MAGL [4], at most 0.1 µM.
`O=C(OC(C(F)(F)F)C(F)(F)F)N1CCN(Cc2ccc(C(F)F)cc2C2(C(=O)O)CCCC2)CC1` [Example 27, 1-(5-(Difluoromethyl)-2-((4-(((1,1,1,3,3,3-hexafluoropropan-2-yl)oxy)carbonyl)piperazin-1-yl)methyl)phenyl)cyclopentane-1-carboxylic Acid]: the inhibition at 1 µM was at least 75% on MAGL [1], at least 75% on MAGL [4] and 0 to 25% on ABHD6 [5]. Moreover, the inhibition at 5 mg/kg at MAGL [2] was at least 75%. Further, the IC50 on ABHD6 [3] was 1 to 10 µM; on MAGL [4], at most 0.1 µM.
As for `O=C(OC(C(F)(F)F)C(F)(F)F)N1CCN(Cc2cccc(Cl)c2C2(C(=O)O)CCCC2)CC1` [Example 44, 1-(2-chloro-6-((4-(((1,1,1,3,3,3-hexafluoropropan-2-yl)oxy)carbonyl)piperazin1-yl)methyl)phenyl)cyclopentane-1-carboxylic acid], the inhibition at 1 µM was at least 75% at MAGL [1] and 50 to 75% on ABHD6 [5]. For the same compound, the inhibition at 5 mg/kg at MAGL [2] was at least 75%. The half-maximal inhibitory concentration (IC50) is 1 to 10 µM at ABHD6 [3] and at most 0.1 µM on MAGL [4].
For the compound `O=C(O)CN1CC2(CCN(c3cc(C(F)(F)F)ccc3CN3CCN(C(=O)OC(C(F)(F)F)C(F)(F)F)CC3)C2)C1` [Example 22, 2-(6-(2-((4-(((1,1,1,3,3,3-Hexafluoropropan-2-yl)oxy)carbonyl)piperazin-1-yl)methyl)-5-(trifluoromethyl)phenyl)-2,6-diazaspiro[3.4]octan-2-yl)acetic Acid], the values for the inhibition at 1 µM at MAGL [1], at MAGL [4] and on ABHD6 [5] were at least 75%, at least 75% and 0 to 25%, respectively. Besides, the inhibition at 5 mg/kg at MAGL [2] lay within 0 to 25%. The IC50 at ABHD6 [3] is 1 to 10 µM; at MAGL [4] it was at most 0.1 µM.
For the compound `O=C(O)CN1CCCC12CN(c1cc(C(F)(F)F)ccc1CN1CCN(C(=O)OC(C(F)(F)F)C(F)(F)F)CC1)C2` [Example 24, 2-(2-(2-((4-(((1,1,1,3,3,3-Hexafluoropropan-2-yl)oxy)carbonyl)piperazin-1-yl)methyl)-5-(trifluoromethyl)phenyl)-2,5-diazaspiro[3.4]octan-5-yl)acetic Acid], the inhibition at 1 µM at MAGL [1] is at least 75%; at MAGL [4], at least 75%; at ABHD6 [5], 0 to 25%. Also, the results for the IC50 at MAGL [1], on ABHD6 [3] and at MAGL [4] were at most 0.1 µM, 1 to 10 µM and at most 0.1 µM, respectively. In addition, the inhibition at 5 mg/kg on MAGL [2] was at least 75%.
As to `O=C(O)C1CCN(C(=O)c2cc(C(F)(F)F)ccc2CN2CCN(C(=O)OC(C(F)(F)F)C(F)(F)F)CC2)CC1` [Example 35, 1-(2-((4-(((1,1,1,3,3,3-Hexafluoropropan-2-yl)oxy)carbonyl)piperazin-1-yl)methyl)-5-(trifluoromethyl)benzoyl)piperidine-4-carboxylic Acid], the results for the inhibition at 1 µM on MAGL [1], on MAGL [4] and on ABHD6 [5] were at least 75%, at least 75% and 0 to 25%, respectively. For the same compound, the figures for the IC50 at MAGL [1], at ABHD6 [3] and on MAGL [4] were 0.1 to 1 µM, 1 to 10 µM and 0.1 to 1 µM, respectively. In addition, on MAGL [2], the inhibition at 5 mg/kg fell in the range of 0 to 25%.
For the compound `CCC(C(=O)O)n1cc(-c2cc(C(F)(F)F)ccc2CN2CCN(C(=O)OC(C(F)(F)F)C(F)(F)F)CC2)cn1` (stereo not shown) [Example 5, 2-(4-(2-((4-(((1,1,1,3,3,3-Hexafluoropropan-2-yl)oxy)carbonyl)piperazin-1-yl)methyl)-5-(trifluoromethyl)phenyl)-1H-pyrazol-1-yl)butanoic Acid], the inhibition at 1 µM on MAGL [1], on MAGL [4] and at ABHD6 [5] was at least 75% in each case. The inhibition at 5 mg/kg at MAGL [2] fell in the range of 0 to 25%. Moreover, the figures for the IC50 on ABHD6 [3] and on MAGL [4] were 0.1 to 1 µM and at most 0.1 µM, respectively.
`O=C(O)CC1CCN(c2cc(C(F)(F)F)ccc2CN2CCN(C(=O)OC(C(F)(F)F)C(F)(F)F)CC2)CC1` [Example 43, 2-(1-(2-((4-(((1,1,1,3,3,3-hexafluoropropan-2-yl)oxy)carbonyl)piperazin-1-yl)methyl)-5-(trifluoromethyl)phenyl)piperidin-4-yl)acetic acid]: the inhibition at 1 µM on MAGL [1], at MAGL [4] and on ABHD6 [5] was at least 75% each time. The inhibition at 5 mg/kg on MAGL [2] was at least 75%. Moreover, the IC50 at ABHD6 [3] was 1 to 10 µM; at MAGL [4], at most 0.1 µM.
